Assay results published in BigSolDB 2.1.

COc1cc([N+](=O)[O-])c(OC)cc1Cl
solubility (mole fraction) (in ethanol, 276.95 K): 0.00042
solubility (mole fraction) (in ethanol, 281.05 K): 0.000522
solubility (mole fraction) (in ethanol, 285.25 K): 0.000644
solubility (mole fraction) (in ethanol, 288.25 K): 0.000757
solubility (mole fraction) (in ethanol, 291.45 K): 0.000892
solubility (mole fraction) (in ethanol, 295.75 K): 0.00109
solubility (mole fraction) (in ethanol, 300.15 K): 0.00135
solubility (mole fraction) (in ethanol, 305.55 K): 0.00172
solubility (mole fraction) (in ethanol, 310.45 K): 0.00219
solubility (mole fraction) (in ethanol, 314.85 K): 0.00274
solubility (mole fraction) (in ethanol, 319.65 K): 0.0034
solubility (mole fraction) (in ethanol, 323.65 K): 0.00409
solubility (mole fraction) (in ethanol, 327.25 K): 0.0048
solubility (mole fraction) (in ethanol, 330.25 K): 0.00558
solubility (mole fraction) (in ethanol, 333.35 K): 0.00649
solubility (mole fraction) (in ethanol, 336.65 K): 0.00764
solubility (mole fraction) (in ethanol, 340.45 K): 0.00921
solubility (mole fraction) (in m-xylene, 277.05 K): 0.00728
solubility (mole fraction) (in m-xylene, 279.95 K): 0.00788
solubility (mole fraction) (in m-xylene, 283.15 K): 0.00872
solubility (mole fraction) (in m-xylene, 286.15 K): 0.00994
solubility (mole fraction) (in m-xylene, 290.05 K): 0.0118
solubility (mole fraction) (in m-xylene, 295.35 K): 0.0146
solubility (mole fraction) (in m-xylene, 300.75 K): 0.0178
solubility (mole fraction) (in m-xylene, 305.05 K): 0.0209
solubility (mole fraction) (in m-xylene, 308.85 K): 0.024
solubility (mole fraction) (in m-xylene, 312.15 K): 0.0272
solubility (mole fraction) (in m-xylene, 315.45 K): 0.0305
solubility (mole fraction) (in m-xylene, 318.55 K): 0.0341
solubility (mole fraction) (in m-xylene, 321.75 K): 0.0382
solubility (mole fraction) (in m-xylene, 325.05 K): 0.0432
solubility (mole fraction) (in m-xylene, 328.45 K): 0.049
solubility (mole fraction) (in m-xylene, 332.05 K): 0.0561
solubility (mole fraction) (in m-xylene, 335.35 K): 0.0645
solubility (mole fraction) (in m-xylene, 338.95 K): 0.0747
solubility (mole fraction) (in methanol, 279.35 K): 0.000449
solubility (mole fraction) (in methanol, 282.75 K): 0.000517
solubility (mole fraction) (in methanol, 285.55 K): 0.000598
solubility (mole fraction) (in methanol, 288.85 K): 0.000716
solubility (mole fraction) (in methanol, 293.45 K): 0.000895
solubility (mole fraction) (in methanol, 297.55 K): 0.00109
solubility (mole fraction) (in methanol, 301.75 K): 0.00131
solubility (mole fraction) (in methanol, 305.85 K): 0.00156
solubility (mole fraction) (in methanol, 309.55 K): 0.00187
solubility (mole fraction) (in methanol, 313.25 K): 0.00223
solubility (mole fraction) (in methanol, 316.85 K): 0.00266
solubility (mole fraction) (in methanol, 320.75 K): 0.00318
solubility (mole fraction) (in methanol, 324.85 K): 0.00383
solubility (mole fraction) (in methanol, 329.05 K): 0.00464
solubility (mole fraction) (in o-xylene, 277.75 K): 0.00864
solubility (mole fraction) (in o-xylene, 280.45 K): 0.00956
solubility (mole fraction) (in o-xylene, 283.55 K): 0.0107
solubility (mole fraction) (in o-xylene, 287.05 K): 0.0123
solubility (mole fraction) (in o-xylene, 291.45 K): 0.0145
solubility (mole fraction) (in o-xylene, 296.25 K): 0.0174
solubility (mole fraction) (in o-xylene, 301.25 K): 0.0209
solubility (mole fraction) (in o-xylene, 305.65 K): 0.0245
solubility (mole fraction) (in o-xylene, 309.45 K): 0.0283
solubility (mole fraction) (in o-xylene, 313.25 K): 0.0323
solubility (mole fraction) (in o-xylene, 316.85 K): 0.0367
solubility (mole fraction) (in o-xylene, 320.55 K): 0.0418
solubility (mole fraction) (in o-xylene, 323.95 K): 0.0476
solubility (mole fraction) (in o-xylene, 327.55 K): 0.0544
solubility (mole fraction) (in o-xylene, 331.35 K): 0.0624
solubility (mole fraction) (in o-xylene, 335.25 K): 0.0719
solubility (mole fraction) (in o-xylene, 339.35 K): 0.0831
solubility (mole fraction) (in p-xylene, 289.55 K): 0.0126
solubility (mole fraction) (in p-xylene, 293.65 K): 0.0145
solubility (mole fraction) (in p-xylene, 297.55 K): 0.0168
solubility (mole fraction) (in p-xylene, 301.95 K): 0.0198
solubility (mole fraction) (in p-xylene, 306.15 K): 0.023
solubility (mole fraction) (in p-xylene, 310.25 K): 0.0266
solubility (mole fraction) (in p-xylene, 313.85 K): 0.0304
solubility (mole fraction) (in p-xylene, 317.55 K): 0.0347
solubility (mole fraction) (in p-xylene, 321.15 K): 0.0396
solubility (mole fraction) (in p-xylene, 324.65 K): 0.0454
solubility (mole fraction) (in p-xylene, 328.45 K): 0.0522
solubility (mole fraction) (in p-xylene, 332.35 K): 0.0604
solubility (mole fraction) (in p-xylene, 336.65 K): 0.07
solubility (mole fraction) (in toluene, 277.45 K): 0.00969
solubility (mole fraction) (in toluene, 280.55 K): 0.0107
solubility (mole fraction) (in toluene, 283.85 K): 0.0122
solubility (mole fraction) (in toluene, 287.85 K): 0.0145
solubility (mole fraction) (in toluene, 293.05 K): 0.0178
solubility (mole fraction) (in toluene, 297.95 K): 0.0211
solubility (mole fraction) (in toluene, 301.85 K): 0.0241
solubility (mole fraction) (in toluene, 305.35 K): 0.0273
solubility (mole fraction) (in toluene, 308.75 K): 0.0308
solubility (mole fraction) (in toluene, 312.35 K): 0.0347
solubility (mole fraction) (in toluene, 315.85 K): 0.0393
solubility (mole fraction) (in toluene, 319.45 K): 0.045
solubility (mole fraction) (in toluene, 323.45 K): 0.052
solubility (mole fraction) (in toluene, 327.75 K): 0.061
solubility (mole fraction) (in toluene, 332.75 K): 0.0726
solubility (mole fraction) (in toluene, 337.35 K): 0.0852

COc1cc(Cl)c(OC)cc1N
solubility (mole fraction) (in ethanol, 279.35 K): 0.00274
solubility (mole fraction) (in ethanol, 282.65 K): 0.00327
solubility (mole fraction) (in ethanol, 286.45 K): 0.00386
solubility (mole fraction) (in ethanol, 289.55 K): 0.00447
solubility (mole fraction) (in ethanol, 292.15 K): 0.00497
solubility (mole fraction) (in ethanol, 295.55 K): 0.00579
solubility (mole fraction) (in ethanol, 299.45 K): 0.00695
solubility (mole fraction) (in ethanol, 303.05 K): 0.00821
solubility (mole fraction) (in ethanol, 305.85 K): 0.00938
solubility (mole fraction) (in ethanol, 310.25 K): 0.0115
solubility (mole fraction) (in ethanol, 313.95 K): 0.0137
solubility (mole fraction) (in ethanol, 317.65 K): 0.0164
solubility (mole fraction) (in ethanol, 321.55 K): 0.0201
solubility (mole fraction) (in ethanol, 325.05 K): 0.024
solubility (mole fraction) (in ethanol, 328.65 K): 0.0289
solubility (mole fraction) (in ethanol, 331.55 K): 0.0344
solubility (mole fraction) (in ethanol, 335.25 K): 0.0416
solubility (mole fraction) (in m-xylene, 277.35 K): 0.00495
solubility (mole fraction) (in m-xylene, 281.85 K): 0.00615
solubility (mole fraction) (in m-xylene, 286.05 K): 0.00739
solubility (mole fraction) (in m-xylene, 289.95 K): 0.00877
solubility (mole fraction) (in m-xylene, 292.85 K): 0.0103
solubility (mole fraction) (in m-xylene, 296.25 K): 0.012
solubility (mole fraction) (in m-xylene, 299.35 K): 0.0139
solubility (mole fraction) (in m-xylene, 302.35 K): 0.016
solubility (mole fraction) (in m-xylene, 305.55 K): 0.0186
solubility (mole fraction) (in m-xylene, 309.25 K): 0.0219
solubility (mole fraction) (in m-xylene, 312.75 K): 0.0262
solubility (mole fraction) (in m-xylene, 316.95 K): 0.0318
solubility (mole fraction) (in m-xylene, 321.25 K): 0.0386
solubility (mole fraction) (in m-xylene, 325.05 K): 0.0466
solubility (mole fraction) (in m-xylene, 328.65 K): 0.0561
solubility (mole fraction) (in m-xylene, 332.35 K): 0.0669
solubility (mole fraction) (in m-xylene, 335.65 K): 0.0791
solubility (mole fraction) (in methanol, 278.05 K): 0.00282
solubility (mole fraction) (in methanol, 282.45 K): 0.00342
solubility (mole fraction) (in methanol, 285.85 K): 0.00399
solubility (mole fraction) (in methanol, 289.45 K): 0.00465
solubility (mole fraction) (in methanol, 292.75 K): 0.0054
solubility (mole fraction) (in methanol, 296.65 K): 0.00634
solubility (mole fraction) (in methanol, 299.85 K): 0.00734
solubility (mole fraction) (in methanol, 303.35 K): 0.00852
solubility (mole fraction) (in methanol, 306.55 K): 0.0099
solubility (mole fraction) (in methanol, 309.95 K): 0.0115
solubility (mole fraction) (in methanol, 313.45 K): 0.0134
solubility (mole fraction) (in methanol, 316.45 K): 0.0156
solubility (mole fraction) (in methanol, 319.35 K): 0.0181
solubility (mole fraction) (in methanol, 322.45 K): 0.0212
solubility (mole fraction) (in methanol, 325.45 K): 0.0247
solubility (mole fraction) (in methanol, 328.85 K): 0.0289
solubility (mole fraction) (in o-xylene, 278.25 K): 0.0058
solubility (mole fraction) (in o-xylene, 281.85 K): 0.00699
solubility (mole fraction) (in o-xylene, 285.55 K): 0.00831
solubility (mole fraction) (in o-xylene, 289.15 K): 0.00989
solubility (mole fraction) (in o-xylene, 292.75 K): 0.0117
solubility (mole fraction) (in o-xylene, 296.05 K): 0.0136
solubility (mole fraction) (in o-xylene, 299.45 K): 0.0158
solubility (mole fraction) (in o-xylene, 303.25 K): 0.0184
solubility (mole fraction) (in o-xylene, 307.05 K): 0.0214
solubility (mole fraction) (in o-xylene, 310.35 K): 0.0252
solubility (mole fraction) (in o-xylene, 313.65 K): 0.0298
solubility (mole fraction) (in o-xylene, 317.55 K): 0.0358
solubility (mole fraction) (in o-xylene, 321.85 K): 0.0443
solubility (mole fraction) (in o-xylene, 326.25 K): 0.0549
solubility (mole fraction) (in o-xylene, 330.95 K): 0.0677
solubility (mole fraction) (in o-xylene, 335.05 K): 0.0816
solubility (mole fraction) (in p-xylene, 288.55 K): 0.00855
solubility (mole fraction) (in p-xylene, 291.65 K): 0.00985
solubility (mole fraction) (in p-xylene, 294.95 K): 0.0115
solubility (mole fraction) (in p-xylene, 298.45 K): 0.0134
solubility (mole fraction) (in p-xylene, 302.25 K): 0.0158
solubility (mole fraction) (in p-xylene, 306.05 K): 0.0186
solubility (mole fraction) (in p-xylene, 309.65 K): 0.022
solubility (mole fraction) (in p-xylene, 313.55 K): 0.026
solubility (mole fraction) (in p-xylene, 317.65 K): 0.031
solubility (mole fraction) (in p-xylene, 321.25 K): 0.0371
solubility (mole fraction) (in p-xylene, 325.25 K): 0.0447
solubility (mole fraction) (in p-xylene, 329.55 K): 0.0539
solubility (mole fraction) (in p-xylene, 334.25 K): 0.0651
solubility (mole fraction) (in toluene, 277.65 K): 0.0065
solubility (mole fraction) (in toluene, 281.95 K): 0.00831
solubility (mole fraction) (in toluene, 286.05 K): 0.0101
solubility (mole fraction) (in toluene, 290.05 K): 0.0126
solubility (mole fraction) (in toluene, 293.35 K): 0.0146
solubility (mole fraction) (in toluene, 296.45 K): 0.0169
solubility (mole fraction) (in toluene, 299.65 K): 0.0194
solubility (mole fraction) (in toluene, 302.75 K): 0.0224
solubility (mole fraction) (in toluene, 306.25 K): 0.0263
solubility (mole fraction) (in toluene, 309.95 K): 0.0312
solubility (mole fraction) (in toluene, 313.75 K): 0.0373
solubility (mole fraction) (in toluene, 317.65 K): 0.0447
solubility (mole fraction) (in toluene, 321.75 K): 0.0536
solubility (mole fraction) (in toluene, 325.45 K): 0.0641
solubility (mole fraction) (in toluene, 328.95 K): 0.0761
solubility (mole fraction) (in toluene, 332.25 K): 0.0894
solubility (mole fraction) (in toluene, 335.35 K): 0.104
